Measurements published in patent publication US5587479A, “Basic derivatives of glutamic acid and aspartic acid as gastrin or cholecystokinin antagonists” (priority 1992, dated 1996).
pIC50: −log10 of the molar value. Values after ≈ are worked out from the molar mass of the structure shown. Where two headings read alike, the source gives them in different places.

What was measured:
[1] = molecular target: T1, central CCK-B receptors (guinea pig cortical membrane) (Cavia porcellus, UniProt H0VZC5); test: Inhibition of binding of (3-H)[N-methyl-N-leucine]CCK-8 to guinea pig cortical membranes (anti-CCK-B); settings: IC50, inhibition of binding of (3-H)[N-methyl-N-leucine]CCK-8 to the guinea pig cortical membrane, 150 minutes at 25° C.
T1 construct: Cerebral cortices of white male guinea pigs were therefore used; from tissue; host or cells: guinea pig cerebral cortex membranes
T1 sequence (H0VZC5 1-426): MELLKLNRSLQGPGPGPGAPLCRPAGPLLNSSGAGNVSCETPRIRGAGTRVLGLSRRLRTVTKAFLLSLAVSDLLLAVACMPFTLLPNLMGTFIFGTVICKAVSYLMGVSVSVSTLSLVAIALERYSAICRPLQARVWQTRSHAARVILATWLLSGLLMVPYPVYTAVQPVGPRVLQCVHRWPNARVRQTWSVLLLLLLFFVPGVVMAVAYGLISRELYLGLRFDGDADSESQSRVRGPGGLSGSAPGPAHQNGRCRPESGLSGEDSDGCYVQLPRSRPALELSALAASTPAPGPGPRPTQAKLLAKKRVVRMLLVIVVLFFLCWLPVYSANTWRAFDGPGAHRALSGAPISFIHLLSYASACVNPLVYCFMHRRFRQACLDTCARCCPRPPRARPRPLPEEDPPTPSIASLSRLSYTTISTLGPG
Protocol: Cerebral cortices of white male guinea pigs were therefore used, according to the method mentioned above, so as to obtain a membrane content/ml corresponding to about 300 mcg of proteins/mi. The membranes were incubated together with the radioactive tracer and the compounds under test for 150 minutes at 25° C. After the supernatant liquid had been discarded, the radioactivity associated with the pellet was determined with a liquid scintillator.

guinea-pig ureters = test: Antispastic activity in vitro: spontaneous motility of guinea-pig ureters; settings: for IC50: Cavia porcellus, five minutes contact, 37° C.
Excerpt: The isotonic contractions were detected by means of a force transducer and recorded. […] A given concentration of the product under test was then introduced into the bath and left in contact with the prepared specimen for five minutes, after which the ureter was washed until its own spontaneous activity was re-established.

[2] = molecular target: T2, cholecystokinin receptors of the pancreatic cells of the rat (CCK-A) (Rattus norvegicus, UniProt P30551); test: Inhibition of the binding of [125-I]-[Bolton-Hunter]-CCK-8 to rat pancreatic cells (anti-CCK-A); settings: 30 minutes at 37° C.; read-out: IC50, inhibition of the binding of (125-I)(B-H)-CCK-8 to the pancreatic cells of the rat
T2 construct: The pancreatic cells of the rat were prepared as described by Makovec et al; from tissue; host or cells: rat pancreatic cells
T2 sequence (P30551 1-444): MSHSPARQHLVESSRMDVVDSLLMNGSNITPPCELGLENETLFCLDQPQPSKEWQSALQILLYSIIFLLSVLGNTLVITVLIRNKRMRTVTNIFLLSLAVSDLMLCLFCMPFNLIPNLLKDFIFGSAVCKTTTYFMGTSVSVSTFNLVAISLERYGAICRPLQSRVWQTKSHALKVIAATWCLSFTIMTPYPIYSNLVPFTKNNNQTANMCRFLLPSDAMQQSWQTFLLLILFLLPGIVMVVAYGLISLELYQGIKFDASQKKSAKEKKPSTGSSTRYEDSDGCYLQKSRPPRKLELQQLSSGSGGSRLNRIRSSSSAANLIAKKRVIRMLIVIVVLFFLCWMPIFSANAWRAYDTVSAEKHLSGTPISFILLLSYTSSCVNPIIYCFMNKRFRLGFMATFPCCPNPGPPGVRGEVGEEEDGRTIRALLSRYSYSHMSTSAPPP
Protocol: The pancreatic cells of the rat were prepared as described by Makovec et al. (reference cited) so as to produce about 5×10^6 cells/mi. The cells were then incubated together with the radioactive tracer and the compounds under test for 30 minutes at 37° C.
After the supernatant liquid had been discarded, the radioactivity associated with the pellet was determined with a gamma counter (80% efficiency).

[3] = test system: acid secretion induced by pentagastrin; test: Activity against gastric secretion stimulated with pentagastrin in the anaesthetized rat; assay type: in vivo; settings: iv; anaesthetized rat, pentagastrin 30 mcg/kg/h, I.V. bolus; read-out: Antagonistic activity (ID50) towards acid secretion induced by pentagastrin
Protocol: The investigation of the activity against gastric secretion performed by the compounds of the invention by means of an antigastrin mechanism was carried out in vivo in anaesthetized rats with the use of male animals weighing about 200 g. Gastric secretion was stimulated with pentagastrin and the method of K. S. Lai [Gut 5, (1964), 327-341] was used, slightly modified.
After tracheotomy, the oesophagus and duodenum were cannulated. Perfusion was carried out with a tepid solution (37° C.) of 0.25 mM NaOH which was passed through the stomach by means of a peristaltic pump at a constant flow rate of 1 ml/minute. After stabilization for 20 minutes, the stimulant, dissolved in a physiological solution, was perfused for 120 minutes at a dose of 30 mcg/kg/h in a volume of 0.95 ml/hour. After perfusion for 60 minutes (the basal simulation), the product under test was administered intravenously (I.V.) as a bolus and the perfusion of the stimulant was continued for a further 60 minutes. The acid secretion was recorded continuously as a function of time.
The activity of the product was evaluated as the percentage reduction in the secreted acidity after the administration of the product compared with the basal acidity measured during the first 60 minutes of collection in the presence of pentagastrin alone.

[4] = force of the contractions, read-out: IC50 (force), inhibition of the spontaneous motility of guinea-pig ureters in vitro
[5] = frequency of the contractions, read-out: IC50 (frequency), inhibition of the spontaneous motility of guinea-pig ureters in vitro

| Structure (SMILES) | pIC50 [1] | IC50 (guinea-pig ureters; [4]) [mg/L] | IC50 (guinea-pig ureters; [5]) [mg/L] | ED50 [3] [mg/kg] | further results |
| --- | --- | --- | --- | --- | --- |
| CCCCCN(CCCCC)C(=O)C(CCC(=O)NCCN1CCCCC1)NC(=O)c1ccc(C)c(C)c1 (stereo not drawn) [Compound 55] | < 4.00 | 11 (≈ 20.8 µM) | 18 (≈ 34 µM) | – | – |
| CCCCCN(CCCCC)C(=O)C(CCC(=O)NCCCN(C)C)NC(=O)c1ccc(C)c(C)c1 (stereo not drawn) [Compound 41] | – | 20 (≈ 39.8 µM) | 28 (≈ 55.7 µM) | – | – |
| CCCCN(CCCC)C(=O)C(CCC(=O)NCC1CCCN1CC)NC(=O)c1ccc(C)c(C)c1 (stereo not drawn) [Compound 31] | – | 23 (≈ 45.9 µM) | – | – | – |
| CN1CCN(C(=O)C[C@@H](NC(=O)c2cc(Cl)cc(Cl)c2)C(=O)N2CCC3(CCCC3)CC2)CC1 [Compound 70] | – | – | – | 18.9 | – |
| O=C(O)CC[C@@H](NC(=O)c1cc(Cl)cc(Cl)c1)C(=O)N1CCC2(CCCC2)CC1 [CR 2194, reference compound] | 5.62 | – | – | 11 | – |
| CN(C)CCNC(=O)CC[C@@H](NC(=O)c1cc(Cl)cc(Cl)c1)C(=O)N1CCC2(CCCC2)CC1 [Compound 4] | 4.90 | – | 121 (≈ 237 µM) | – | – |
| CN1CCN(C(=O)CC[C@@H](NC(=O)c2cc(Cl)cc(Cl)c2)C(=O)N2CCC3(CCCCC3)CC2)CC1 [Compound 13] | – | – | – | 8.5 | – |
| CCC(C)(CC)CCNC(=O)C(CC(=O)NCCN1CCOCC1)NC(=O)c1cccc(Cl)c1 (stereo not drawn) [Compound 68] | – | – | – | 31 | – |
| CCCN(CCC)C(=O)C(CCC(=O)O)NC(=O)c1ccccc1 (stereo not drawn) [proglumide, reference compound] | – | – | – | 500 | – |

Further lines, with some results ahead:

| pIC50 [1] | IC50 (guinea-pig ureters; [4]) [mg/L] | IC50 (guinea-pig ureters; [5]) [mg/L] | Structure (SMILES) | ED50 [3] [mg/kg] | further results |
| --- | --- | --- | --- | --- | --- |
| – | 18 (≈ 32 µM) | 16 (≈ 28.4 µM) | CCCCCN(CCCCC)C(=O)C(CCC(=O)NCCN1CCOCC1)NC(=O)c1ccc(OC)c(OC)c1 (stereo not drawn) [Compound 35] | – | – |
| – | 1.6 (≈ 3.01 µM) | 1.5 (≈ 2.83 µM) | CCCCCN(CCCCC)C(=O)[C@H](CCC(=O)NCCN1CCOCC1)NC(=O)c1ccc(C)c(C)c1 [Compound 46] | – | activity on guinea-pig ureters (in words) (guinea-pig ureters): extremely active; activity relative to Verapamil (guinea-pig ureters; guinea-pig ureters): about twice; times more active than Papaverine and Flavexate (guinea-pig ureters; guinea-pig ureters): about 20 times |
| 5.54 | 32 (≈ 57.9 µM) | 100 (≈ 181 µM) | CCCCCN(CCCCC)C(=O)[C@@H](CCC(=O)NCCN1CCOCC1)NC(=O)c1ccc2ccccc2c1 [Compound 61] | – | pIC50 [2]: 5.55 |
| – | 18 (≈ 34.8 µM) | 16 (≈ 31 µM) | CCCCCN(CCCCC)C(=O)C(CCC(=O)NCCN1CCOCC1)NC(=O)c1ccc(C)cc1 (stereo not drawn) [Compound 33] | – | – |
